Test results from patent US4822809A, “Benzazole lipoxygenase inhibiting compounds” (Abbott Laboratories, priority 1987, dated 1989).

Target: T1, 5-lipoxygenase (Rattus norvegicus, UniProt P12527)
T1 construct: 20,000×g supernatant from 6×10^4 homogenized RBL-1 cells; endogenous in cells; host or cells: RBL-1 cells (20,000×g supernatant of homogenate)
T1 sequence (P12527 1-673): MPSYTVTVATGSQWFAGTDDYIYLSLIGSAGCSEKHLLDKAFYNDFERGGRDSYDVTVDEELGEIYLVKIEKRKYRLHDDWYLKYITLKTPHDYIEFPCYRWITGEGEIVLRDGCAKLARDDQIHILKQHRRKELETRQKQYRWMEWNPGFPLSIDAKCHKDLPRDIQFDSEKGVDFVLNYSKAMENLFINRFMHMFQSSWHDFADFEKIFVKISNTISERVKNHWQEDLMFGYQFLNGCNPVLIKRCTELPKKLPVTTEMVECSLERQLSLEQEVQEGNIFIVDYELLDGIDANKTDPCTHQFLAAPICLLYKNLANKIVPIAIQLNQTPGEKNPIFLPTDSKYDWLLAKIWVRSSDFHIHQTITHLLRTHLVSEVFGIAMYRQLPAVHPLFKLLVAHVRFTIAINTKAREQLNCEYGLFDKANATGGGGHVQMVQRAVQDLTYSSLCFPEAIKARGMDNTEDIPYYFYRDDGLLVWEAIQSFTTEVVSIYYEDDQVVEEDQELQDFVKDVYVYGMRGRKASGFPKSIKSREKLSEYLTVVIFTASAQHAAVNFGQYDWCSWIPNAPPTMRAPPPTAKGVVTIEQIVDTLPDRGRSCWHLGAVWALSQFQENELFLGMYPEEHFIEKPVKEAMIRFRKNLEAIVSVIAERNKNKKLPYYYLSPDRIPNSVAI
Experiment: 5-lipoxygenase inhibition, 20,000×g supernatant of homogenized RBL-1 cells, radiolabelled arachidonic acid
Format: biochemical
Details: In vitro 5-lipoxygenase inhibitory potency; RBL-1 cell 20,000×g supernatant, 2% DMSO
Method: Assays to determine 5-lipoxygenase activity were performed in 200 μL incubations containing the 20,000×g supernatant from 6×10^4 homogenized RBL-1 cells, 2% DMSO vehicle and various concentrations of the test compound. Reactions were initiated by addition of radiolabelled arachidonic acid and terminated by acidification and ether extraction. Reaction products were separated from nonconverted substrate by thin layer chromatography and measured by liquid scintillation spectroscopy. All treatments were evaluated in triplicate incubations. Inhibition of 5-lipoxygenase activity was computed by comparison of the quantity of products formed in the treatment incubations to the mean product formation in vehicle control groups (n=8). IC50 values and 95% confidence limits were computed by linear regression analysis of percentage inhibition versus log inhibitor concentration plots. The results of the assay indicate that the compounds are inhibitors of 5-lipoxygenase.

Structure (SMILES)	IC50 [µM]
CC(c1nc2ccccc2s1)N(O)C(N)=O (centres unmarked) [Example 2, N-hydroxy-N-(1-benzo[b]thiazol-2-ylethyl)urea]	1.9
CNC(=O)N(O)Cc1nc2ccccc2n1C [Example 1, N-hydroxy-N-(1-methyl-benzo[b]imidazol-2-ylmethyl)N'-methylurea]	85
